Read-outs that look alike come from different tables or passages of the source.

Series [1] addresses T1, E. coli ADP-glucose pyrophosphorylase (ADP-Glc PPase) (Escherichia coli, UniProt P0A6V1).
T1 construct: gene glgC
T1 sequence (P0A6V1 1-431): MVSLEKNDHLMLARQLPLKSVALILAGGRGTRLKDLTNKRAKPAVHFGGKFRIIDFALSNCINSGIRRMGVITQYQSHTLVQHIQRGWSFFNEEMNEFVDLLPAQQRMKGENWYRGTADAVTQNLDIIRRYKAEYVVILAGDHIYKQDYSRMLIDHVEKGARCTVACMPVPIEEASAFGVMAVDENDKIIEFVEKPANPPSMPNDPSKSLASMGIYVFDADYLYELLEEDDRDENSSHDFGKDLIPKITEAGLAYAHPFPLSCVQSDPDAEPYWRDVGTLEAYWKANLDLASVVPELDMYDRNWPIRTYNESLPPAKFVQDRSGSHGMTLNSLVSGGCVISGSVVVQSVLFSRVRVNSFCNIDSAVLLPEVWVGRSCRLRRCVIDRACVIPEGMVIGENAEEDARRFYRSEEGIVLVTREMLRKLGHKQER
The series can be described thus: thermal shift assay, SYPRO Orange. The following applies: read-out: dTm at 1 mM. The class given is binding.

Series [2] concerns the target T2, E. coli ADP-glucose pyrophosphorylase (ADP-Glc PPase) (Escherichia coli, UniProt P0A6V1, R130A).
T2 construct: gene glgC
T2 sequence (P0A6V1 1-431 R130A): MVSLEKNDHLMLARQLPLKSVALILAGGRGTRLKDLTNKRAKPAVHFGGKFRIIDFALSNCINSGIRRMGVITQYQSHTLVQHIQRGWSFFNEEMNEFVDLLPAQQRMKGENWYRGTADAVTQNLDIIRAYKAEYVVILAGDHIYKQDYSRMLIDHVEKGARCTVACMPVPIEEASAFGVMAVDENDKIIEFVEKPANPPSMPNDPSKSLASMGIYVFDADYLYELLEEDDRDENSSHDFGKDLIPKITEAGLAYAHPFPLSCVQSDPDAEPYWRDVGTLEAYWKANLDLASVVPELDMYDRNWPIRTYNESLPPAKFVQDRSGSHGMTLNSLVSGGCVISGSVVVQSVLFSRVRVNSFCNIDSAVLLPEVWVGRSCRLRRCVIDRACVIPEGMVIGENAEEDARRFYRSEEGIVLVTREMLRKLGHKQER
The series can be described thus: ADP-glucose synthesis, colorimetric phosphate detection after pyrophosphatase. The class given is biochemical. The text has this: (§1) ADP-glucose synthesis, colorimetric phosphate detection after pyrophosphatase on E. coli ADP-glucose pyrophosphorylase (ADP-Glc PPase)

The target in series [3] is T3, E. coli ADP-glucose pyrophosphorylase (ADP-Glc PPase) (Escherichia coli, UniProt P0A6V1, R419A).
T3 construct: gene glgC
T3 sequence (P0A6V1 1-431 R419A): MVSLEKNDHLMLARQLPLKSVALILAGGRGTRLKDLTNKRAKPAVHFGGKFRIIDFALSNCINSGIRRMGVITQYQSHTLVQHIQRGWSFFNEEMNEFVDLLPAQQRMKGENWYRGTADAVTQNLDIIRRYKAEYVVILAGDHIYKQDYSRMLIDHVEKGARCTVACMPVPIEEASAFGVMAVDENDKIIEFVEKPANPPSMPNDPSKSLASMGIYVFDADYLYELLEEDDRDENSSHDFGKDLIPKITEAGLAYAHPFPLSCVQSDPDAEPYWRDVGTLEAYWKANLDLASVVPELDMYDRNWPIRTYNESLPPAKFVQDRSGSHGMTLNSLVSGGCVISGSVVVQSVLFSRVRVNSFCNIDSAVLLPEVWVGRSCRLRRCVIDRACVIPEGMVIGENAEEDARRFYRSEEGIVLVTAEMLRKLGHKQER
Described as above. The class given is biochemical.
Excerpt: as §1

The target in series [4] is T4, E. coli ADP-glucose pyrophosphorylase (ADP-Glc PPase) (Escherichia coli, UniProt P0A6V1, R423A).
T4 construct: gene glgC
T4 sequence (P0A6V1 1-431 R423A): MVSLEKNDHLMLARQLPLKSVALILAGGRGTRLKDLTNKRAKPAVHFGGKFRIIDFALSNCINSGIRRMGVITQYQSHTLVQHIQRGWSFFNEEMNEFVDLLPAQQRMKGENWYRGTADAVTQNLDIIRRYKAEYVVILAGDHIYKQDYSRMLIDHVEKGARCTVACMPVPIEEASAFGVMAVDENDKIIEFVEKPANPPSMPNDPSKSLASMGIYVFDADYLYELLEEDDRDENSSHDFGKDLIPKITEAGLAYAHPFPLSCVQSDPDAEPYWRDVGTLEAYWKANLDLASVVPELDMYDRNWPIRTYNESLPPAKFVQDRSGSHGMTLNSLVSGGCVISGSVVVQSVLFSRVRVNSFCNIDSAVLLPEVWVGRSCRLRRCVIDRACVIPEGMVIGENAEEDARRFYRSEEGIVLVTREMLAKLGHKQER
The description is as above. The class given is biochemical.
Excerpt: as §1

For series [5], the target named is T5, E. coli ADP-glucose pyrophosphorylase (ADP-Glc PPase) (Escherichia coli, UniProt P0A6V1, R353A).
T5 construct: gene glgC
T5 sequence (P0A6V1 1-431 R353A): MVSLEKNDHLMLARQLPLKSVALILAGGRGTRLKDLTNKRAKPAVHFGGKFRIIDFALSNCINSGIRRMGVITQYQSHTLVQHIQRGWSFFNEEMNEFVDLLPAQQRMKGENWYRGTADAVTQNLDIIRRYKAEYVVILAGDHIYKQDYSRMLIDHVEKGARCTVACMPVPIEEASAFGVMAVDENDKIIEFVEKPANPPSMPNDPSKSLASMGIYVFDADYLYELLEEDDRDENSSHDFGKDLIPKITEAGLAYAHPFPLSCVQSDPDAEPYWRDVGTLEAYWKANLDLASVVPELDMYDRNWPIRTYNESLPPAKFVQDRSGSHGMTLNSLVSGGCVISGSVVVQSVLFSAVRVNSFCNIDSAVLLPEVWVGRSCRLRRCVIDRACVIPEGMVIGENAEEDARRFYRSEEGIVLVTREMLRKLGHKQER
The description is as above. Format: biochemical.
Excerpt: as §1

The target of series [6] is T1, E. coli ADP-glucose pyrophosphorylase (ADP-Glc PPase). The series is described as above. The class given is biochemical.
Excerpt: as §1

For series [7], the target named is T6, E. coli ADP-glucose pyrophosphorylase (ADP-Glc PPase) (Escherichia coli, UniProt P0A6V1, R386A).
T6 construct: gene glgC
T6 sequence (P0A6V1 1-431 R386A): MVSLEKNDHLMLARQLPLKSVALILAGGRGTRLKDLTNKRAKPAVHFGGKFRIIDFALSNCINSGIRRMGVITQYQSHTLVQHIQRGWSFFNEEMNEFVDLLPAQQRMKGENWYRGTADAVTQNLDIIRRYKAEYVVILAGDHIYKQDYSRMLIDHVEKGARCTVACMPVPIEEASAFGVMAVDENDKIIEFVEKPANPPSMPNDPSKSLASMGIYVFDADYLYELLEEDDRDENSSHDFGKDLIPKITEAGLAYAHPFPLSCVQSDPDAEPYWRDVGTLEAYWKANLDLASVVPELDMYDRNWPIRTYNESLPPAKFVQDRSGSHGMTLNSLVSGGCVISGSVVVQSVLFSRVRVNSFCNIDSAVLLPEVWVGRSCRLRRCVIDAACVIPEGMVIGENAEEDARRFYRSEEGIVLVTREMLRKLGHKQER
The series is described as above. Format: biochemical.
Excerpt: as §1

For series [8], the target named is T7, E. coli ADP-glucose pyrophosphorylase (ADP-Glc PPase) (Escherichia coli, UniProt P0A6V1, R52K).
T7 construct: gene glgC
T7 sequence (P0A6V1 1-431 R52K): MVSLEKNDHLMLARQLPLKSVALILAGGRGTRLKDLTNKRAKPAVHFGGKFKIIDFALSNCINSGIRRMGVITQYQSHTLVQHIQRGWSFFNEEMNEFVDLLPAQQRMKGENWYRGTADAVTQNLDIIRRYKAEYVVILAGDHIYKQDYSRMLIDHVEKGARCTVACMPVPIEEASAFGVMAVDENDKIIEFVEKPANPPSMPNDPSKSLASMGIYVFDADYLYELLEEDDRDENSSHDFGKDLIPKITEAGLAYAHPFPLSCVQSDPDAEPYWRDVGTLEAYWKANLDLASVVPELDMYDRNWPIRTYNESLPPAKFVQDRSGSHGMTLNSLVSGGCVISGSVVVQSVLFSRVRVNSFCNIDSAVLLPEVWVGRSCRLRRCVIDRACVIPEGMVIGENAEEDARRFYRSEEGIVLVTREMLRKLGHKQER
The series is described as above. The class given is biochemical. Conditions: read-out: PLP / A0.5 /.
Excerpt: as §1

Series [9] concerns the target T8, E. coli ADP-glucose pyrophosphorylase (ADP-Glc PPase) (Escherichia coli, UniProt P0A6V1, R40A).
T8 construct: gene glgC
T8 sequence (P0A6V1 1-431 R40A): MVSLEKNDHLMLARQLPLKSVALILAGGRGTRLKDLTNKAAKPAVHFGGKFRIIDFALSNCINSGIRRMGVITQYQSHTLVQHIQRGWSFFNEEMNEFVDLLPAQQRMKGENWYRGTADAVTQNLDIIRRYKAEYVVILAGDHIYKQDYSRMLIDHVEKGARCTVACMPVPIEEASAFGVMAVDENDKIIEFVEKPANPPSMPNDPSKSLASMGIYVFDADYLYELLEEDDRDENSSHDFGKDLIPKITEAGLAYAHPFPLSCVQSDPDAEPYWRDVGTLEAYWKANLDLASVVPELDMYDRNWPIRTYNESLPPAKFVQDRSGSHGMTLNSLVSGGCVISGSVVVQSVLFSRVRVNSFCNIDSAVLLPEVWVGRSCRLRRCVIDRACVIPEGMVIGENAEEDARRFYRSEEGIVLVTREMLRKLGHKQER
The description is as above. Format: biochemical. Conditions: read-out: PLP / A0.5 /.
Excerpt: as §1

Substrate in series [10]: Nc1ncnc2c1ncn2[C@@H]1O[C@H](COP(=O)(O)OP(=O)(O)OP(=O)(O)O)[C@@H](O)[C@H]1O
Described as above. Conditions: no activator (control), 1 mM Glc1P, 10 mM MgCl2, 50 mM HEPES pH 8.0. Format: biochemical, Escherichia coli. The protocol: One was measured in absence (control)

The mark [11] stands for this setting: activator, allosteric, 1.0 mM Glc1P, 1.5 mM ATP, 10 mM MgCl2, pH 8.0, read-out: FBP / A0.5 /.

In the case of `O=P(O)(O)OC[C@H]1OC(O)(COP(=O)(O)O)[C@@H](O)[C@@H]1O` (stereo partly shown) [FBP], the ΔTm at 1000 µM in series [1] stood at 13.2 °C. In addition, the EC50 in [2] (setting [11]) was 67 ± 10 µM; in [3] (setting [11]) it was 36 ± 11 µM; in series [4] (setting [11]) it was 320 ± 50 µM; in [5] (setting [11]), 40 ± 10 µM; in series [6] (setting [11]), 27 ± 9 µM; in series [7] (setting [11]) it was 1000 ± 130 µM.

As to `Cc1ncc(COP(=O)(O)O)c(C=O)c1O` [PLP], the EC50 turned out to be 1.29 ± 0.23 µM in series [2] (read-out: PLP / A0.5 /); 0.019 ± 0.005 µM in series [3] (read-out: PLP / A0.5 /); 0.21 ± 0.01 µM in series [4] (read-out: PLP / A0.5 /); 0.22 ± 0.05 µM in series [8]; 0.16 ± 0.01 µM in series [5] (read-out: PLP / A0.5 /); 0.075 ± 0.004 µM in [6] (read-out: PLP / A0.5 /). Moreover, the values for the EC50 in series [9] and in [7] (read-out: PLP / A0.5 /) were 0.48 ± 0.22 µM and 4.2 ± 0.6 µM, respectively.

B1: E. coli ADP-glucose pyrophosphorylase (ADP-Glc PPase) (Escherichia coli K-12) (protein)
chain: MVSLEKNDHLMLARQLPLKSVALILAGGRGTRLKDLTNKRAKPAVHFGGKFRIIDFALSNCINSGIRRMGVITQYQSHTLVQHIQRGWSFFNEEMNEFVDLLPAQQRMKGENWYRGTADAVTQNLDIIRRYKAEYVVILAGDHIYKQDYSRMLIDHVEKGARCTVACMPVPIEEASAFGVMAVDENDKIIEFVEKPANPPSMPNDPSKSLASMGIYVFDADYLYELLEEDDRDENSSHDFGKDLIPKITEAGLAYAHPFPLSCVQSDPDAEPYWRDVGTLEAYWKANLDLASVVPELDMYDRNWPIRTYNESLPPAKFVQDRSGSHGMTLNSLVSGGCVISGSVVVQSVLFSRVRVNSFCNIDSAVLLPEVWVGRSCRLRRCVIDRACVIPEGMVIGENAEEDARRFYRSEEGIVLVTREMLRKLGHKQER
Consider B1, for which the K0.5 in [10] stood at 1.75 ± 0.09 mM.

(Values after paper PMC6773804, “Mapping of a Regulatory Site of the Escherichia coli ADP-Glucose Pyrophosphorylase” (Frontiers in Molecular Biosciences, 2019).)
